This note sets out measurements from patent publication US8653048B2 (Sanlugen Pharmatech Ltd., priority 2009, dated 2014).

The nature of data set [1]: Pharmacokinetics of gemcitabine in mice, intravenous and oral. The format is in vivo. Conditions: both sexes, Kunming, mouse, plasma, 50 mg/kg; for MRT last: read-out: MRT0-t. The method, then:
(§1) Kunming strain white mice (25+1 g, provided by Experimental Animal Center of Shandong University, half of which were male, half were female).
The solution was filtered and sterilized using a 0.22 μm microfiltration membrane.
120 healthy Kunming mice were taken and divided into two groups randomly. […] The second group was given gemcitabine by intravenous injection in a tail vein. Five mice were settled parallel at each time point. The dosage was 50 mg/kg (equivalent to 0.2 mL per mouse). The mice were fasted but allowed to drink for a 12 h period before administration. Blood samples were drawn from eyebase veniplex at 5 min, 15 min, 30 min, 45 min, 1 h, 2 h, 4 h, 6 h, 8 h, 12 h, 24 h, 48 h after the administration and put into hepain sodium treated centrifuge tubes containing 2.5 μL tetrahydrouridine solution (THU, 10 mg/ml) and centrifuged for 15 min at 4000 r/min. Isopropanol (1 mL) was added into the solution and vortexed for 30 s and kept still for 5 min. 2.5 ml of EtOAc was added and votexed and centrifuged at 4000 rpm for 15 minutes. The supernatant was taken and dried by blowing in nitrogen. The dried sample was redissolved in 200 μL HPLC mobile phase solution. 20 μL sample was loaded to the HPLC. The chromatography and peak area were recorded.

The nature of data set [2]: Pharmacokinetics of SL-01 and SL-02 in mice, intragastric. The format is in vivo. Conditions: both sexes, Kunming, mouse, plasma, po, SL-01 100 mg/kg intragastric. The method, then:
as §1
125 mg of SL-01 or SL-02 were weighed accurately and added into 10 mL volumetric flask. Water (containing 0.1% Tween-80) was added to the mark and mixed uniformly to get the suspensions of SL-01 or SL-02.
100 healthy Kunming mice were taken and divided into two groups randomly. The first group was given SL-01 and the second group was given SL-02. Five mice were settled parallel at each time point. SL-01 and SL-02 were administrated intragastricly with a dosage at 100 mg/kg (equivalent to 0.2 mL per mouse). The mice were fasted but allowed to drink for a 12 h period before administration. Blood samples were drawn from eyebase veniplex at 5 min, 15 min, 30 min, 45 min, 1 h, 2 h, 4 h, 6 h, 8 h, 12 h, 24 h, 48 h after the administration and put into heparin sodium treated centrifuge tubes containing 2.5 μL tetrahydrouridine solution (THU, 10 mg/ml) and centrifuged for 15 min at 4000 r/min. Isopropanol (1 mL) was added into the solution and vortexed for 30 s and kept still for 5 min. 2.5 ml of EtOAc was added and votexed and centrifuged at 4000 rpm for 15 minutes. The supernatant was taken and dried by blowing in nitrogen. The dried sample was redissolved in 200 μL HPLC mobile phase solution. 20 μL sample was loaded to the HPLC. The chromatography and peak area was recorded. The plasma concentrations of SL-01 and SL-02 was calculated. The average concentration of SL-01 and SL-02 was plotted with the time.

Usually bioavailability stands for dose-corrected exposure relative to a reference, in per cent. As to `Nc1ccn([C@@H]2O[C@H](CO)[C@@H](O)C2(F)F)c(=O)n1` [Gemcitabine, gemcitabine, reference compound], in data set [1] (iv), the AUC(0-t) is 11300 ng·h/mL, the Cmax was found to be 11500 ng/mL, the Tmax stood at 4.98 min and the half-life is 58.2 min. The MRT last in data set [1] (iv) was 1.07 h. In addition, the bioavailability in data set [1] (oral, AUCoral/AUCiv, mice, read-out: Absolute bioavailability) was 35.6%. Moreover, in data set [1] (po), the AUC(0-t) came out at 4020 ng·h/mL, the Cmax is 2600 ng/mL, the Tmax worked out at 30 min and the half-life was 49.8 min. Besides, the MRT last in data set [1] (po) worked out at 1.28 h.

In the case of `CCCCCCCCCCCCOC(=O)c1nccnc1C(=O)Nc1ccn([C@@H]2O[C@H](CO)[C@@H](O)C2(F)F)c(=O)n1` [Compound 4, Dodecyl-3-((1-((2R,4R,5R)-3,3-difluoro-4-hydroxy-5-(hydroxymethyl)-tetrahydrofuran-2-yl)-2-oxo-1,2-dihydropyrimidin-4-yl)carbamoyl)pyrazine-2-carboxylate], in data set [2] (analyte SL-01, read-out: AUC0-t, SL-01 Administration Group), the AUC(0-t) was 1810 ng·h/mL. Also, the Cmax in data set [2] (analyte SL-01, read-out: Cmax, SL-01 Administration Group) turned out to be 4370 ng/mL. For the same compound, the MRT last in data set [2] (analyte SL-01, read-out: MRT0-t, SL-01 Administration Group) was 21.6 min. In data set [2] (analyte SL-01, read-out: T1/2, SL-01 Administration Group (converted)), the half-life is 31.1 min. Also, the Tmax in data set [2] (analyte SL-01, read-out: Tmax, SL-01 Administration Group) came out at 15 min.
